Test results taken from patent publication US8178506B2, “Oligomeric compounds and compositions for use in modulation of small non-coding RNAs” (Regulus Therapeutics Inc., priority 2003, dated 2012).
In the oligonucleotide strings, read from the 5' end, every base follows the letter of its sugar. An asterisk marks phosphorothioate; unmarked linkages are phosphodiester. Other units and linkages are bracketed, terminal groups are in braces. A string of capitals states the bases alone. e = 2'-O-(2-methoxyethyl) (MOE); [5mC] = 5-methylcytosine; d = 2'-deoxy (DNA)

Tests used:
HuVECs = assay: Endothelial tube formation assay in HuVECs; details: for % Activity Relative to UTC (tube formation): 75 nM oligomeric compound
T47D cells = assay: Caspase-3 activity assay (apoptosis) in T47D cells; details: T47D cells, 48 hours; for Fold Increase over UTC (caspase-3 activity, apoptosis): 200 nM oligomeric compound
IGFBP-1 = IGFBP-1 mRNA expression in HepG2 cells; type: cell-based, human; details: for IGFBP1 mRNA expression: Experiment 2, insulin treated: HepG2 cells transfected with oligomeric compound, 1 nM insulin for four hours, UTC + 1 nM insulin = 100
Method: (§1) Approximately 28 hours after transfection, the cells are subjected to serum starvation for a period of 12 to 16 hours, using serum-free growth medium. Following serum starvation, cells are treated with 1 nM insulin (insulin-treated) or are left untreated (basal conditions) for approximately four hours. At the same time, untreated control cells in both plates are treated with 100 nM insulin to determine the maximal insulin response. Following insulin treatment (forty-eight hours after transfection), total RNA is harvested from all samples, and the amount of total RNA from each sample is determined using a Ribogreen assay (Invitrogen Corporation, Carlsbad, Calif.). Real-time PCR is performed on the total RNA samples using primer/probe sets for three insulin responsive genes: insulin-like growth factor binding protein-1 (IGFBP-1), cytosolic PEPCK (PEPCK-C), and follistatin. Gene expression levels obtained by real-time PCR are normalized for total RNA content in the samples.
(§2) Oligomeric compounds of the present invention were tested for their effects on insulin signaling in HepG2 cells. HepG2 cells were plated at 7500 cells/well in collagen coated 96-well plates. The following day, cells were transfected with oligomeric compounds targeting miRNAs using 100 nM oligomeric compound in LIPOFECTIN™ (Invitrogen Corporation, Carlsbad, Calif.) in two 96-well plates. The oligomeric compounds were tested in triplicate on each 96-well plate, except for positive and negative controls, which were measured up to six times per plate. At the end of transfection, the transfection medium was replaced by regular growth medium. Twenty-eight hours post-transfection, the cells were subjected to overnight (sixteen to eighteen hours) serum starvation using serum free growth medium. Forty-four hours post-transfection, the cells in the transfected wells were treated with either no insulin (“basal” Experiment 1, for identification of insulin-mimetic compounds) or with 1 nM insulin (“insulin treated” Experiment 2, for identification of insulin sensitizers) for four hours. At the same time, in both plates, cells in some of the un-transfected control wells are treated with 100 nM insulin to determine maximal insulin response. At the end of the insulin or no-insulin treatment (forty-eight hours post-transfection), total RNA is isolated from both the basal and insulin treated (1 nM) 96-well plates, and the amount of total RNA from each sample is determined using a Ribogreen assay (Molecular Probes, Eugene, Oreg.). Real-time PCR is performed on all the total RNA samples using primer/probe sets for three insulin responsive genes: PEPCK-c, IGFBP-1 and follistatin. Expression levels for each gene are normalized to total RNA, and values+standard deviation are expressed relative to the transfectant only untreated control (UTC) and negative control compounds.
(§3) Protocols for treatment of HepG2 cells and transfection of oligomeric compounds are as described in Example 18. Also as described in Example 18, forty-four hours post-transfection, the cells in the transfected wells were treated with either no insulin (“basal” Experiment 3 (below), for identification of insulin-mimetic compounds) or with 1 nM insulin (“insulin treated” Experiment 4 (below), for identification of insulin sensitizers) for four hours. At the same time, in both plates, cells in some of the un-transfected control wells are treated with 100 nM insulin to determine maximal insulin response. At the end of the insulin or no-insulin treatment (forty-eight hours post-transfection), total RNA is isolated from both the basal and insulin treated (1 nM) 96-well plates, and the amount of total RNA from each sample is determined using a Ribogreen assay (Molecular Probes, Eugene, Oreg.).

follistatin = assay: Follistatin mRNA expression in HepG2 cells; type: cell-based, human; details: for Follistatin mRNA expression: Experiment 2, insulin treated: HepG2 cells transfected with oligomeric compound, 1 nM insulin for four hours, UTC + 1 nM insulin = 100
Method: as §1, §2, §3

PEPCK-c = PEPCK-c mRNA expression in HepG2 cells; type: cell-based, human; details: for PEPCKc mRNA expression: Experiment 2, insulin treated: HepG2 cells transfected with oligomeric compound, 1 nM insulin for four hours, UTC + 1 nM insulin = 100
Method: as §1, §2, §3

HeLa cells = assay: Cell cycle assay in HeLa cells; type: cell-based, human; details: HeLa cells, 150 nM oligomeric compound
[1] = Experiment 3, basal (no insulin), HepG2 cells, 48 hours post-transfection
[2] = Experiment 4, insulin-sensitization: HepG2 cells treated with 1 nM insulin for four hours, 48 h post-transfection, mRNA by real-time PCR
[3] = 24 hours, relative to untreated control (UTC = 100)
[4] = 48 hours after treatment, relative to untreated control (UTC=100)

## 327875 (antisense eA*e[5mC]*eA*eA*e[5mC]*e[5mC]*eA*eG*e[5mC]*eT*eA*eA*eG*eA*e[5mC]*eA*e[5mC]*eT*eG*e[5mC]*e[5mC]*eA) [compound 327875]
HuVECs; Table 56
  % Activity Relative to UTC (tube formation): 71.4%

## 328384 (eT*e[5mC]*eA*e[5mC]*eG*dT*dG*dG*dA*dG*dA*dG*dG*dA*dG*eT*eT*eA*eA*eA; antisense) [compound 328384]
T47D cells; experiment of Table 11
  Fold Increase over UTC (caspase-3 activity, apoptosis): 1.0 fold
IGFBP-1; [1]
  IGFBP-1 (% UTC): 139 % UTC
IGFBP-1; [2]
  IGFBP-1 (% UTC): 102 % UTC
follistatin; [1]
  Follistatin (% UTC): 110 % UTC
follistatin; [2]
  Follistatin (% UTC): 121 % UTC
PEPCK-c; [1]
  PEPCK-c (% UTC): 142 % UTC
PEPCK-c; [2]
  PEPCK-c (% UTC): 114 % UTC

## 342672 (antisense eA*eT*eA*e[5mC]*e[5mC]*eG*e[5mC]*eG*eA*eT*e[5mC]*eA*eG*eT*eG*e[5mC]*eA*eT*e[5mC]*eT*eT*eT) [compound 342672]
HuVECs; Table 56
  % Activity Relative to UTC (tube formation): 46.4%
HuVECs; Table 57
  % Activity Relative to UTC (tube formation): 58.6%
HuVECs; Table 58
  % Activity Relative to UTC (tube formation): 55.6%
HuVECs; Table 59
  % Activity Relative to UTC (tube formation): 60.0%

## AAAGTGTCAGATACGGTGTGG (anti-miR; chemistry not fully specified) [ISIS 327944]
HuVECs; 75 nM
  tube formation: suppressed tube formation

## 328397 (antisense eT*eT*eG*eA*eT*d[5mC]*d[5mC]*dA*dT*dA*dT*dG*d[5mC]*dA*dA*e[5mC]*eA*eA*eG*eG) [compound 328397]
HeLa cells; [3]
  % cells aneuploid: 91%
  % cells in cell cycle phase G1: 93%
  % cells in cell cycle phase G2/M: 142%
  % cells in cell cycle phase S: 86%
  % cells in cell cycle phase subG1: 134%
HeLa cells; [4]
  % cells in cell cycle phase: G1: 97%
  % cells in cell cycle phase: G2/M: 109%
  % cells in cell cycle phase: S: 101%
  % cells in cell cycle phase: aneuploid: 96%
  % cells in cell cycle phase: subG1: 74%
T47D cells; 200 nM, relative to untreated control
  Fold Increase over UTC (caspase activity): 1.2
IGFBP-1
  IGFBP1 mRNA expression: 57
follistatin
  Follistatin mRNA expression: 75
PEPCK-c
  PEPCKc mRNA expression: 76

## 328649 (eG*eT*eA*eG*eA*dT*dA*dA*d[5mC]*dT*dA*dA*dA*d[5mC]*dA*e[5mC]*eT*eA*e[5mC]*e[5mC]; antisense) [compound 328649]
T47D cells; experiment of Table 10
  Fold Increase over UTC (caspase-3 activity, apoptosis): 1.0 fold
IGFBP-1
  IGFBP1 mRNA expression: 115
follistatin
  Follistatin mRNA expression: 69
PEPCK-c
  PEPCKc mRNA expression: 86
